Km data for one compound are collected here from PMC5902630, “A Firefly Luciferase Dual Color Bioluminescence Reporter Assay Using Two Substrates To Simultaneously Monitor Two Gene Expression Events” (Scientific Reports, 2018).

Each structure is given as a SMILES string.

The target in one experiment is PLG3 (Photinus pyralis, UniProt P08659, F250T/L291I/Y340F/F465R, form not given). As to the kind of experiment: bioluminescence burst (maximal light intensity), Michaelis-Menten fit. Type of experiment: biochemical. The conditions noted are these: 2 mM Mg-ATP, 50 mM Tricine, pH 7.8; read-out: Km (μM) / BtLH2. The source says:
bioluminescence burst (maximal light intensity), Michaelis-Menten fit on PLG3

The target in another experiment is PLR1 (Photinus pyralis, UniProt P08659, Y255F/S284T, form not given). The experiment is described as above. Format: biochemical. As to conditions: 2 mM Mg-ATP, 50 mM Tricine, pH 7.8; read-out: Km (μM) / BtLH2. An excerpt:
bioluminescence burst (maximal light intensity), Michaelis-Menten fit on PLR1

Chain of PLG3 (P08659 whole entry F250T/L291I/Y340F/F465R, form open): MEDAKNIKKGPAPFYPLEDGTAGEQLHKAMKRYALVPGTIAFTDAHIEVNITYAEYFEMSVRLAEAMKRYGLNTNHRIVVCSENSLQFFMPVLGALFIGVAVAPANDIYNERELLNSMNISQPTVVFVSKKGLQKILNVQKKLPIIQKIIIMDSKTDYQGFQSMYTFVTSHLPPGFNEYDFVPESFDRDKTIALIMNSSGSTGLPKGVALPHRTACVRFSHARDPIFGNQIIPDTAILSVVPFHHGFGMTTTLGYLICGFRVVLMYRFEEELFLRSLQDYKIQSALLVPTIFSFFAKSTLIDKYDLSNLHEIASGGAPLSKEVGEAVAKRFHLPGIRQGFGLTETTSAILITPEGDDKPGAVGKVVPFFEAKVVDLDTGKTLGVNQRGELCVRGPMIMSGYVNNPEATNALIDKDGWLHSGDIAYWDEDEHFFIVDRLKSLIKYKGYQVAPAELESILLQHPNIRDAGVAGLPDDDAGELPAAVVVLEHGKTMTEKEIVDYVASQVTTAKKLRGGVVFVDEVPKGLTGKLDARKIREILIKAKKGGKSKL
Chain of PLR1 (P08659 whole entry Y255F/S284T, form open): as the sequence (P08659 whole entry F250T/L291I/Y340F/F465R, form open) above, with T250F, Y255F, S284T, I291L, F340Y, R465F counted along it

With `O=C(O)[C@H]1CSC(c2cc3ccc(O)cc3s2)=N1` [BtLH2], the Km on PLG3 was 5 ± 1 µM; at PLR1 it was 28 ± 3 µM.
